“And” between values parts separate entries of the source, which are not always exact repeats. Identical values can stand only once.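 48-hour exposure; five concentrations; linearly interpolated endpoints. At the GI50, growth is halved. TGI: total growth inhibition.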
Experiments:
Experiment in all cases: growth of human tumour cells (NCI), 48 h
UACC-62 melanoma = system: UACC-62 melanoma
UACC-257 melanoma = system: UACC-257 melanoma
DLD-1 colon = system: DLD-1 colon
EKVX NSCLC = system: EKVX NSCLC
RXF 393 renal = system: RXF 393 renal
LOX IMVI melanoma = system: LOX IMVI melanoma
SF-295 CNS = system: SF-295 CNS
HOP-92 NSCLC = system: HOP-92 NSCLC
MOLT-4 leukemia = system: MOLT-4 leukemia
SN12C renal = system: SN12C renal
HOP-62 NSCLC = system: HOP-62 NSCLC
SNB-78 CNS = system: SNB-78 CNS
NCI-H226 lung = system: NCI-H226 lung
NCI-H23 lung = system: NCI-H23 lung
OVCAR-3 ovarian = system: OVCAR-3 ovarian
CCRF-CEM leukemia = system: CCRF-CEM leukemia
SK-MEL-28 melanoma = system: SK-MEL-28 melanoma
KM20L2 colon = system: KM20L2 colon
TK-10 renal = system: TK-10 renal
XF 498 CNS = system: XF 498 CNS
HCC-2998 colon = system: HCC-2998 colon
K-562 leukemia = system: K-562 leukemia
A549 NSCLC = system: A549 NSCLC
MALME-3M melanoma = system: MALME-3M melanoma
CAKI-1 renal = system: CAKI-1 renal
ACHN renal = system: ACHN renal
A498 renal = system: A498 renal
U251 CNS = system: U251 CNS
DMS 114 small cell lung = system: DMS 114 small cell lung
SK-OV-3 ovarian = system: SK-OV-3 ovarian
HCT-15 colon = system: HCT-15 colon
LXFL 529 NSCLC = system: LXFL 529 NSCLC
M14 melanoma = system: M14 melanoma
IGROV1 ovarian = system: IGROV1 ovarian
SF-268 CNS = system: SF-268 CNS
SNB-19 CNS = system: SNB-19 CNS
SK-MEL-2 melanoma = system: SK-MEL-2 melanoma
M19-MEL melanoma = system: M19-MEL melanoma
NCI-H522 lung = system: NCI-H522 lung
SF-539 CNS = system: SF-539 CNS
OVCAR-5 ovarian = system: OVCAR-5 ovarian
SK-MEL-5 melanoma = system: SK-MEL-5 melanoma
RPMI-8226 leukemia = system: RPMI-8226 leukemia
HL-60(TB) leukemia = system: HL-60(TB) leukemia
COLO 205 colon = system: COLO 205 colon
OVCAR-8 ovarian = system: OVCAR-8 ovarian
HT29 colon = system: HT29 colon
OVCAR-4 ovarian = system: OVCAR-4 ovarian
KM12 colon = system: KM12 colon
NCI-H460 lung = system: NCI-H460 lung
UO-31 renal = system: UO-31 renal
HCT-116 colon = system: HCT-116 colon
SW-620 colon = system: SW-620 colon
DMS 273 small cell lung = system: DMS 273 small cell lung
SNB-75 CNS = system: SNB-75 CNS
786-0 renal = system: 786-0 renal

CC(C)=CCSC1CC2C(CC1(C)O)C2(C)C (stereo unspecified)
TGI (UACC-62 melanoma): 29.2 µM and 31.7 µM
GI50 (UACC-257 melanoma): 18.3 µM and 7.13 µM
TGI (UACC-257 melanoma): 32.6 µM and 20.6 µM
TGI (DLD-1 colon): 33.4 µM and 27.4 µM
TGI (EKVX NSCLC): 28.3 µM and 31.4 µM
GI50 (RXF 393 renal): 2.01 µM and 14.9 µM
TGI (RXF 393 renal): 11.2 µM and 28.4 µM
TGI (LOX IMVI melanoma): 29.7 µM
TGI (SF-295 CNS): 55.9 µM and 35.2 µM
TGI (HOP-92 NSCLC): 30.4 µM and 27 µM
TGI (MOLT-4 leukemia): 40.9 µM and 67.5 µM
TGI (SN12C renal): 32 µM and 29.6 µM
TGI (HOP-62 NSCLC): 31.8 µM and 31.2 µM
TGI (SNB-78 CNS): 41.2 µM and 26.3 µM
TGI (NCI-H226 lung): 27.5 µM
TGI (NCI-H23 lung): 29.8 µM and 25 µM
TGI (OVCAR-3 ovarian): 31.2 µM and 23.6 µM
GI50 (CCRF-CEM leukemia): 26 µM and 12.8 µM
TGI (CCRF-CEM leukemia): > 100 µM and 38.7 µM
TGI (SK-MEL-28 melanoma): 31.3 µM and 30.7 µM
TGI (KM20L2 colon): 30.8 µM and 34.9 µM
TGI (TK-10 renal): 32.3 µM and 30.8 µM
TGI (XF 498 CNS): 18 µM and 16.6 µM
TGI (HCC-2998 colon): 3.27 µM and 18.6 µM
GI50 (K-562 leukemia): 28.2 µM and 10.1 µM
TGI (K-562 leukemia): 80.1 µM and 29.6 µM
TGI (A549 NSCLC): 24.1 µM and 30.2 µM
TGI (MALME-3M melanoma): 31.2 µM and 30.4 µM
TGI (CAKI-1 renal): 28.3 µM and 25.5 µM
TGI (ACHN renal): 31 µM and 31.3 µM
TGI (A498 renal): 31.4 µM and 36.2 µM
TGI (U251 CNS): 28.5 µM and 27.1 µM
TGI (DMS 114 small cell lung): 30.7 µM and 21.7 µM
TGI (SK-OV-3 ovarian): 28.2 µM and 29.7 µM
TGI (HCT-15 colon): 31.4 µM and 29.6 µM
TGI (LXFL 529 NSCLC): 31.7 µM and 27.1 µM
TGI (M14 melanoma): 32 µM and 27.9 µM
TGI (IGROV1 ovarian): 31.3 µM and 33 µM
TGI (SF-268 CNS): 34.9 µM and 29.8 µM
TGI (SNB-19 CNS): 34.2 µM and 31.8 µM
GI50 (SK-MEL-2 melanoma): 22.8 µM and 10.2 µM
TGI (SK-MEL-2 melanoma): 44.5 µM and 24.7 µM
GI50 (M19-MEL melanoma): 1.86 µM and 4.26 µM
TGI (M19-MEL melanoma): 3.31 µM and 19.3 µM
GI50 (NCI-H522 lung): 13.3 µM and 4.38 µM
TGI (NCI-H522 lung): 26.9 µM and 18.8 µM
TGI (SF-539 CNS): 32.3 µM and 29.6 µM
TGI (OVCAR-5 ovarian): 28.2 µM and 30.1 µM
GI50 (SK-MEL-5 melanoma): 14.7 µM and 6.59 µM
TGI (SK-MEL-5 melanoma): 28.5 µM and 20.1 µM
TGI (RPMI-8226 leukemia): 48.5 µM and 61.6 µM
GI50 (HL-60(TB) leukemia): 34.1 µM and 3.82 µM
TGI (HL-60(TB) leukemia): > 100 µM and 19.7 µM
TGI (COLO 205 colon): 32.5 µM and 30.8 µM
TGI (OVCAR-8 ovarian): 34.3 µM and 27.1 µM
TGI (HT29 colon): 29 µM and 28.2 µM
TGI (OVCAR-4 ovarian): 35 µM and 29.2 µM
TGI (KM12 colon): 35.7 µM and 27.7 µM
TGI (NCI-H460 lung): 33.7 µM and 27.2 µM
GI50 (UO-31 renal): 14.4 µM and 6.12 µM
TGI (UO-31 renal): 28.2 µM and 20.8 µM
TGI (HCT-116 colon): 33.5 µM and 28.7 µM
TGI (SW-620 colon): 35.1 µM and 33.3 µM
TGI (DMS 273 small cell lung): 29.9 µM and 21.5 µM
TGI (SNB-75 CNS): 30.1 µM and 23.7 µM
TGI (786-0 renal): 29.6 µM and 25.8 µM
